Tests used:
AMPK [1] = assay: AMPK activation assay (western blot phospho-AMPK Thr172) in 3T3-L1; type: cell-based, mouse; conditions: 3T3-L1 cells, 30 min treatment
Protocol: (§1) Effects of compounds on AMPK activation were analyzed in mouse muscle cell C2C12, mouse fibroblast 3T3-L1 and human hepatocyte Hep G2. Those cell lines were cultured in high-glucose Dulbecco's modified Eagle's medium (DMEM) containing 10% fetal bovine serum (FBS), 4 mM L-glutamine, 2 mM sodium pyruvate and 1% penicillin/streptomycin (Invitrogen GibcoBRL, Carlsbad, Calif., USA) at 37° C. under 5% CO2. Cells were plated at 3×10^5 per well (6-well plate). 24 h after plating, cells were treated with indicated compounds for 30 min followed by cell lysis and western blot analysis. Equal amount of protein were separated by SDS-PAGE and then electroblotted on to PVDF membranes. Membranes were blocked with 3% BSA in PBS for 60 min and incubated with anti-phospho-AMPK (Thr172) antibody (1:2,000, Cell signaling), anti-AMPK antibody (1:2,000, Cell signaling), anti-Glut4 antibody (1:1,000, Millipore) or anti-actin antibody (1:5,000; Chemicon International) at 4° C. overnight followed by the corresponding secondary antibody for 1 h at room temperature (RT). Immunoreactive bands were detected by enhanced chemiluminescence (ECL; Pierce, Rockford, Ill., USA) and recorded using Kodakfilm (Rochester, N.Y., USA). The detected signals were scanned and then quantified by using TotalLab Quant software (TotalLab).

AMPK [2] = assay: AMPK activation assay (western blot phospho-AMPK Thr172) in Hep G2; type: cell-based, human; conditions: Hep G2 cells, 30 min treatment
Protocol: as §1

AMPK [3] = assay: AMPK activation assay (western blot phospho-AMPK Thr172) in C2C12; type: cell-based, mouse; conditions: C2C12 cells, 30 min treatment
Protocol: as §1

SMILES	AMPK activation (% to control) 3T3-L1 (AMPK [1]; 1 microM)	AMPK activation (% to control) 3T3-L1 (AMPK [1]; 10 microM)	AMPK activation (% to control) 3T3-L1 (AMPK [1]; 100 microM)	AMPK activation (% to control) 3T3-L1 (AMPK [1]; 200 microM)	AMPK activation (% to control) Hep G2 (AMPK [2]; 1 microM)	AMPK activation (% to control) Hep G2 (AMPK [2]; 10 microM)	AMPK activation (% to control) Hep G2 (AMPK [2]; 100 microM)	AMPK activation (% to control) Hep G2 (AMPK [2]; 200 microM)	AMPK activation (% to control) C2C12 (AMPK [3]; 1 microM)	AMPK activation (% to control) C2C12 (AMPK [3]; 10 microM)	AMPK activation (% to control) C2C12 (AMPK [3]; 100 microM)	AMPK activation (% to control) C2C12 (AMPK [3]; 200 microM)
Nc1nc(N)c2[nH]cnc2n1 [2,6-diaminopurine]	108 % to control	149 % to control	288 % to control	335 % to control	113 % to control	155 % to control	274 % to control	397 % to control	116 % to control	181 % to control	281 % to control	381 % to control
Oc1nc(O)c2[nH]cnc2n1 [2,6-dihydroxypurine]	109 % to control	132 % to control	205 % to control	361 % to control	114 % to control	139 % to control	198 % to control	302 % to control	105 % to control	115 % to control	231 % to control	347 % to control
Sc1nc(S)c2[nH]cnc2n1 [2,6-dimercaptopurine]	102 % to control	98 % to control	178 % to control	260 % to control	110 % to control	133 % to control	244 % to control	366 % to control	104 % to control	117 % to control	215 % to control	298 % to control
COc1cccc(CNc2nc(N)nc3nc[nH]c23)c1OC [2-amino-6-(2,3-dimethoxybenzylamino)purine]	118 % to control	156 % to control	250 % to control	347 % to control	115 % to control	127 % to control	229 % to control	318 % to control	106 % to control	144 % to control	263 % to control	334 % to control
COc1cc(CNc2nc(C)nc3nc[nH]c23)cc(OC)c1OC [2-methyl-6-(3,4,5-trimethoxybenzylamino)purine]	115 % to control	141 % to control	254 % to control	346 % to control	112 % to control	168 % to control	270 % to control	359 % to control	106 % to control	117 % to control	211 % to control	361 % to control
O=C1CCNC(=O)N1 [5,6-dihydrouracil]	116 % to control	159 % to control	268 % to control	341 % to control	120 % to control	167 % to control	274 % to control	360 % to control	108 % to control	114 % to control	207 % to control	326 % to control
Clc1cccc(Nc2ncnc3nc[nH]c23)c1 [6-(3-chloroanilino)purine]	116 % to control	130 % to control	217 % to control	301 % to control	106 % to control	109 % to control	212 % to control	319 % to control	108 % to control	118 % to control	186 % to control	307 % to control
Nc1cc[nH]c(=O)n1 [Cytosine]	117 % to control	127 % to control		310 % to control	117 % to control	164 % to control	281 % to control	359 % to control	119 % to control	158 % to control	253 % to control	361 % to control
CN(C)c1nc(O)c2[nH]cnc2n1 [Example 2-Dimethylamino-6-hydroxypurine, 2-Dimethylamino-6-hydroxypurine]	106 % to control	108 % to control	205 % to control	264 % to control	117 % to control	132 % to control	185 % to control	218 % to control	105 % to control	111 % to control	229 % to control	298 % to control
CC(C)CCNc1nc(N)nc2nc[nH]c12 [Example 2-amino-6-isopentylaminopurine, 2-amino-6-isopentylaminopurine]	110 % to control	169 % to control	271 % to control	361 % to control	117 % to control	174 % to control	250 % to control	341 % to control	104 % to control	114 % to control	238 % to control	305 % to control
Nc1nc(S)c2[nH]cnc2n1 [Example 2-amino-6-mercaptopurine, 2-amino-6-mercaptopurine]	105 % to control	119 % to control	251 % to control	277 % to control	112 % to control	124 % to control	209 % to control	261 % to control	118 % to control	122 % to control	228 % to control	284 % to control
CNc1nc(N)nc2nc[nH]c12 [Example 2-amino-6-methylaminopurine, 2-amino-6-methylaminopurine]	109 % to control	135 % to control	220 % to control	332 % to control	114 % to control	139 % to control	230 % to control	348 % to control	119 % to control	187 % to control	215 % to control	351 % to control
